Experiments:
[1] = two classes made from the FDA DILI-concern labeling
[2] = ref Chen et al. [2016], cited from earlier work; for DILI con. (DILI-concern labeling): FDA DILI labeling; for Hepa. (hepatotoxicity class): FDA labeling in eight classes of hepatotoxicity
[3] = C-max obtained from FDA or literature; ref per compound (FDA, Dailymed, Xu, O’Brien, Khetani, Regenthal, Gustafsson, Dawson, Ogutu, Patel, Schmidt, Ravic, Keisu, Hu, Wagner); cited from earlier work
[4] = ref livertox.nih.gov database; cited from earlier work
[5] = test system: Srxn1-GFP (oxidative stress); assay: HepG2 Srxn1-GFP BAC reporter, live cell confocal imaging (oxidative stress); format: cell-based, Human
Description: Human hepatoma HepG2 cells were acquired from ATCC (clone HB8065). HepG2 Srxn1, DDIT3 (CHOP), CDKN1A (p21) and ICAM1 BAC GFP reporter cell lines were previously established and characterized (Wink et al. [2017]). HepG2 BAC GFP reporters were maintained and exposed to drugs in DMEM high glucose supplemented with 10% (v/v) FBS, 25 U/mL penicillin and 25 µg/mL streptomycin. The cell lines were used between passage 5 and 25. For live cell imaging, the cells were seeded in Greiner black µ-clear 384 wells plates, at 8000 cells per well.
Accumulation of GFP levels, propodium iodide (PI) and Hoechst staining was monitored using a Nikon TiE2000 confocal laser microscope (lasers 540, 488 and 408 nm), equipped with an automated stage and perfect focus system at 37 °C with humidified atmosphere and 5% CO2/air mixture. All imaging was similar as previously described^5. Each 384-well plate contained one reporter cell line, which was exposed to all the compounds used in the screen at one certain concentration (1, 5, 10, 50 or 100 Cmax); for each concentration at least two replicates were imaged per reporter cell line. For the ICAM1-GFP reporter experiments, cells were first exposed for 8 h to compound only; next, TNFα was added to all wells, up to a final concentration of 10 ng/mL. Directly after TNFα treatment the live cell imaging was started.
Quantitative image analysis was performed with CellProfiler version 2.1.1 (Kamentsky et al. [2011]) with an in house developed CellProfiler module implementing the watershed masked algorithm for segmentation (Yan and Verbeek [2012]; Wink et al. [2017]). Image analysis results were stored as HDF5 files. Data analysis, quality control and graphics were performed using the in house developed R package h5CellProfiler (manuscript in preparation). For each reporter hourly intensity levels of the GFP signal, the nuclear Hoechst33342 intensity levels and at 24 h the PI staining were measured at the single cell level. In addition, cell numbers, nuclei size and cell motility were measured.
GFP intensity cell population means were calculated. In addition, for each plate the cell population mean GFP intensity of the DMSO treated cells was calculated to determine background control values. Per plate, the single cells that had values above the 2X mean, 3X mean were counted resulting in GFP positive fraction measures. For ICAM1, the background control values consisted of DMSO conditions treated with TNFα, and the single cells with values above, as well as below background values were counted. Due to the non-symmetric distribution of ICAM1 cell population GFP intensities, the interquartile range (IQR) was used to count the number of cells 1.5, 2 and 3 times above and below the TNFα IQR control values (Supplemental Fig. 1).
The maximum values over time of the scaled intensity levels and positive GFP fractions were selected for the concentration response curves. These values were fit to a four parameter log-logistic model using the drc package (Ritz et al. [2015]). BMC values were calculated as the concentration at which + 0.25 (and − 0.25 for ICAM1) absolute increase from the initial response values occurred (Fig. 5a).

Structure (SMILES)	Severity class [1]	DILI con. (DILI-concern labeling) [2]	Hepa. (hepatotoxicity class) [2]	Cmax [3]	Metab (metabolic potential) [4]	Srxn1-GFP reporter response ([5]; HepG2 BAC-GFP, 24 h live imaging, 1-100 C-max)	Srxn1-GFP response at the intensity feature level (cell population) ([5]; GFP intensity over the single cell population)	earliest concentration with Srxn1 response, %GFP positive marker ([5]; multiples of C-max)
CN(C)C/C=C(/c1ccc(Br)cc1)c1cccnc1 [Zimehdine]	Sev.	Most-DC	8					
Oc1ncnc2[nH]ncc12 [Allopunnol]	Sev.	Most-DC	8	13.8 µM				
CCC1(c2ccccc2)C(=O)NC(=O)NC1=O [Phenobarbital]	Non-sev.		3	146 µM				
Cc1ccc(C(=O)c2cc(O)c(O)c([N+](=O)[O-])c2)cc1 [Tolcapone]	Sev.	Most-DC	8	22 µM	YES			
CSc1ccc2c(c1)N(CCC1CCCCN1C)c1ccccc1S2 (stereo not shown) [Thiondazine]	Non-sev.			0.55 µM	YES			
Br.COc1ccc2c(c1)[C@]13CCCC[C@@H]1[C@H](C2)N(C)CC3 [Dextromethorphan hbr]	Non-sev.	No-DC		0.022 µM				
CO[C@H]1/C=C/O[C@@]2(C)Oc3c(C)c(O)c4c(O)c(c(/C=N/N5CCN(C)CC5)c(O)c4c3C2=O)NC(=O)/C(C)=C\C=C\[C@H](C)[C@H](O)[C@@H](C)[C@@H](O)[C@@H](C)[C@H](OC(C)=O)[C@@H]1C [Rifampicin]		Most-DC		15 µM	YES			
CCc1ccc(CCOc2ccc(CC3SC(=O)NC3=O)cc2)nc1 (stereo not shown) [Pioghtazone]	Non-sev.	Less-DC	3	2.95 µM				
C[N+](C)(C)CCOC(=O)CCC(=O)OCC[N+](C)(C)C [Succinylcholine]	Non-sev.	No-DC	1	138 µM				
CN/C(=N/CCSCc1nc[nH]c1C)NC#N [Cimetidine]		Less-DC	2	11.9 µM	YES			
O=C(CCCN1CCC(O)(c2ccc(Cl)cc2)CC1)c1ccc(F)cc1 [Haloperidol]			5	0.005 µM	YES			
CC[N+](C)(C)c1cccc(O)c1 [Edrophonium]	Non-sev.		1	60.2 µM				
C[C@H]1O[C@H](O[C@H]2[C@H](O)[C@@H](O)[C@@H](O[C@H]3[C@H](O)[C@@H](O)C(O)O[C@@H]3CO)O[C@@H]2CO)[C@H](O)[C@@H](O)[C@@H]1N[C@H]1C=C(CO)[C@@H](O)[C@H](O)[C@H]1O (stereo partly shown) [Acarbose]	Sev.			0.15 µM				
Nc1ncnc2c1ncn2CCOCP(=O)(O)O [Adefovir]	Non-sev.	Less-DC	2	0.085 µM				
CCOC(=O)/C=C\C(=O)OCC [Diethylmaleate]						strong inducers		
NC(N)=Nc1nc(CSCCC(N)=NS(N)(=O)=O)cs1 [Famotidine]		Less-DC	3	0.308 µM	YES			
COc1cc(NC(C)CCCN)c2ncccc2c1 (stereo not shown) [Primaquine]	Non-sev.	No-DC	1					
CCN(CC)C(=O)/C(C#N)=C/c1cc(O)c(O)c([N+](=O)[O-])c1 [Entacapone]	Non-sev.	Less-DC	1	3.93 µM	YES			

Structure (SMILES)	Severity class [1]	DILI con. (DILI-concern labeling) [2]	Hepa. (hepatotoxicity class) [2]	Cmax [3]	Metab (metabolic potential) [4]	Srxn1-GFP reporter response ([5]; HepG2 BAC-GFP, 24 h live imaging, 1-100 C-max)	Srxn1-GFP response at the intensity feature level (cell population) ([5]; GFP intensity over the single cell population)	earliest concentration with Srxn1 response, %GFP positive marker ([5]; multiples of C-max)
O=c1n(CCCN2CCN(c3cccc(Cl)c3)CC2)nc2ccccn12 [Trazodone]		Less-DC	5	5.06 µM	YES			
CC(C)NNC(=O)c1ccncc1 [Iboniazid]	Sev.	Most-DC	8	76.6 µM	YES			
NC[C@H]1O[C@H](O[C@H]2[C@H](O)[C@@H](O[C@H]3O[C@H](CO)[C@@H](O)[C@H](N)[C@H]3O)[C@H](N)C[C@@H]2N)[C@H](O)[C@@H](O)[C@@H]1O [Kanamycin]	Non-sev.			60.1 µM				
CC(O)(CS(=O)(=O)c1ccc(F)cc1)C(=O)Nc1ccc(C#N)c(C(F)(F)F)c1 (stereo not shown) [Bicalutamide]			8	1.97 µM	YES			
CC(C(=O)O)c1cccc(Oc2ccccc2)c1 (stereo not shown) [Fenoprofen]		Most-DC	8	58.2 µM	YES			
CC(C(=O)O)c1ccc(-c2ccccc2)c(F)c1 (stereo not shown) [Flurbiprofen]		Amb.-DC	3	57.3 µM	YES			
CN1C(=O)CCS(=O)(=O)C1c1ccc(Cl)cc1 (stereo not shown) [Chlormezanone]	Sev.	Most-DC	8	10.6 µM				
CCOC(=O)C(C)(C)Oc1ccc(Cl)cc1 [Clofibrate]		Less-DC	3	470 µM	YES			
CNC(=C[N+](=O)[O-])NCCSCc1csc(CN(C)C)n1 [Nizatidine]		Less-DC	5	4 µM	YES			
COc1cc(C(=O)NS(=O)(=O)c2ccccc2C)ccc1Cc1cn(C)c2ccc(NC(=O)OC3CCCC3)cc12 [Zafirlukast]		Most-DC	8	1.21 µM	YES			
Cc1cccc(C)c1OCC(C)N (stereo not shown) [Mexiletine]			3	3.83 µM	YES			
CCOC(=O)[C@H](CCc1ccccc1)N[C@@H](C)C(=O)N1CCC[C@H]1C(=O)O [Enalapril]		Less-DC	7	0.4 µM	YES			
CCC1(c2ccccc2)C(=O)NCNC1=O [Primidone]			1	4.67 µM	YES			
C[N+](C)(C)CC(=O)O [Betaine]	Non-sev.	No-DC	1	940 µM				
Cc1c(C)c2c(c(C)c1O)CCC(C)(COc1ccc(CC3SC(=O)NC3=O)cc1)O2 (stereo not shown) [Troghtazone]	Sev.	Most-DC	8		YES			
CC(=O)N1CCN(c2ccc(OCC3COC(Cn4ccnc4)(c4ccc(Cl)cc4Cl)O3)cc2)CC1 (stereo not shown) [Ketoconazole]		Most-DC	8	6.59 µM			no Srxn1-response	50 C-max
COc1ccc2[nH]c([S+]([O-])Cc3ncc(C)c(OC)c3C)nc2c1 (stereo not shown) [Omeprazole]		Less-DC	4	4.7 µM	YES			
OC(CCN1CCCC1)(c1ccccc1)C1CCCCC1 (stereo not shown) [Procychdine]	Non-sev.							

Source: publication PMC5962642, “Dynamic imaging of adaptive stress response pathway activation for prediction of drug induced liver injury” (Archives of Toxicology, 2018)
